Test results reported in patent US11440887B2, “Substituted 1,2,3,4-tetrahydroquinolines as inhibitors of repair enzyme 8-oxoguanine deoxyribonucleic acid glycosylase activity” (The Board of Trustees of the Leland Stanford Junior …, priority 2017, dated 2022).

Columns and labels:
ABH2 = ABH2 (Homo sapiens (Human), UniProt Q6NS38); assay: ABH2 assay; format: biochemical; details: 20 μM inhibitor
Protocol: (§1) Enzyme (0.5 μM) was pre-incubated for 5 minutes with 20 μM inhibitor or vehicle or at 37° C. in 50 mM HEPES buffer (pH 8.0) containing 75 μM Fe(NH4)2(SO4)2, 1 mM α-ketoglutarate, 2 mM Sodium ascorbate, 50 μg/ml BSA and 0.4 mg/ml Catalase. The probe (1 μM) was added and fluorescent signal plotted over 10 minutes to calculate initial rate. Inhibitor rates were normalized against the vehicle control rate.

[1] = target: MTH1 (human MutT homolog 1) (Homo sapiens (Human), UniProt P36639); assay: MTH1 assay (ARGO probe, Kinase-Glo); format: biochemical; details: 20 μM
Protocol: (30 min). After that, 5 μL of this reaction solution was mixed with 20 μL of Kinase-Glo. Immediately, luminescence was measured on a Thermo Fluoroskan Ascent FL fluorescence plate reader. (See, e.g., Ji, D., et al., J. Am. Chem. Soc. 2016, 138, 9005-9008, the disclosure of which is incorporated herein by reference.) The slope of initial rate (6 min) was calculated, and % of control was used for inhibition activity. MTH1 was purchased from Abcam, PNK buffer was purchased from New England Biolabs, and Kinase-Glo was purchased from Promega.

OGG1 = OGG1 (Homo sapiens (Human), UniProt O15527); assay: Surface plasmon resonance (SPR) binding to OGG1
Protocol: Additional embodiments utilize surface plasmon resonance (SPR) to investigate the binding of various compounds to OGG1. […] Specifically, FIG. 8A illustrates a sensorgram plot of binding response versus time, while FIG. 8B illustrates binding response versus concentration of an inhibitor. Further, FIG. 8C provides Ka, Kd and KD values that are calculated for compounds of various embodiments. These figures indicate that certain embodiments bind strongly to OGG1.

hABH3 = hABH3 (Homo sapiens (Human), UniProt Q96Q83); assay: ABH3 assay (MAQ probe); format: biochemical; details: 20 μM inhibitor
Protocol: as §1, with “Fe(NH4)2(SO4)2, (See, e.g., Beharry, A. A., et al., J. Am. Chem. Soc. 2016, 138, 3647-3650, the disclosure of which is incorporated herein by reference.)” for “Fe(NH4)2(SO4)2,”, “The MAQ” for “The”, “control rate.3” for “control rate.”

hABH3, sequence (Q96Q83 whole entry): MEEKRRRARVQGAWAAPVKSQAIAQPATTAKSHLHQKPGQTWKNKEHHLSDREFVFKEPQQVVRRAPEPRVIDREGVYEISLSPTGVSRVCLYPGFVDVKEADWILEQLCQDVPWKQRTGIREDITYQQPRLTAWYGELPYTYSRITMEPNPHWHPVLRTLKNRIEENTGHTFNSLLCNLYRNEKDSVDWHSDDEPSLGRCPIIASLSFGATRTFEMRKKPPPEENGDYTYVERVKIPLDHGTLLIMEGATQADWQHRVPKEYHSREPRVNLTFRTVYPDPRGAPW
ABH2, sequence (Q6NS38 whole entry, species assumed): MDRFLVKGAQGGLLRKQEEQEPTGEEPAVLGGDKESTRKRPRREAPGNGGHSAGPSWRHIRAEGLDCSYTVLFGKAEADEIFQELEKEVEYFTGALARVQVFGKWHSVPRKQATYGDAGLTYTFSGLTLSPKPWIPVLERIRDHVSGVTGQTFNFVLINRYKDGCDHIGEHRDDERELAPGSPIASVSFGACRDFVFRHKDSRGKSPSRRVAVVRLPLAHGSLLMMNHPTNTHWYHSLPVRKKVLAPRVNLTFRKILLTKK
OGG1, sequence (O15527 whole entry): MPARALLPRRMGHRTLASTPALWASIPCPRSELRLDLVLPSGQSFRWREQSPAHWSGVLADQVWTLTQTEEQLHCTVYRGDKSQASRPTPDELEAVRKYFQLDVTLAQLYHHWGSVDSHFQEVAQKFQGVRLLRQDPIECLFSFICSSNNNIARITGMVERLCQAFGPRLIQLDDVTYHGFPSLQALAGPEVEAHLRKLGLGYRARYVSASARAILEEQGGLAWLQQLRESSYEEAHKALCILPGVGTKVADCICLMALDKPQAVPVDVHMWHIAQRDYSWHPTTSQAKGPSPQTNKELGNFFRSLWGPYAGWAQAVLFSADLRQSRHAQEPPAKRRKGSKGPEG

`NC(=O)c1cccc(-c2ccc(S(=O)(=O)Nc3ccc4c(c3)N(C(=O)C3CC3)CCC4)cc2)c1` [Compound 41] was tested, and the “ABH2 enzyme activity in the presence of the inhibitor” value (ABH2) was greater than 90%, the “MTH1 enzyme activity in the presence of the inhibitor” value [1] was greater than 80% and the “binding to OGG1 by SPR” value (OGG1) was “binds strongly”. The “ABH3 enzyme activity in the presence of the inhibitor” value (hABH3) was roughly 100%.
